Tests used:
Test in all cases: KiNativ kinome profiling in PANC-1 lysate
Type in all cases: binding
STK33 = molecular target: T1, STK33 (Homo sapiens, UniProt Q9BYT3); conditions: Lys2
T1 construct: endogenous in cells; host or cells: PANC-1 cell lysate
Procedure, shortened: (§1)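 PANC-1 lysates were incubated with 5 μM inhibitor or DMSO, then labeled with a desthiobiotin-ATP acyl-phosphate probe that biotinylates conserved kinase lysines. Tryptic peptides were streptavidin-enriched and quantified by LC-MS/MS, reported as % change in MS signal from duplicate treated and duplicate control samples.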

SNRK = molecular target: T2, SNRK (Homo sapiens, UniProt Q9NRH2)
T2 construct: endogenous in cells; host or cells: PANC-1 cell lysate
Procedure, shortened: as §1

JAK1 domain2 = molecular target: T3, JAK1 domain2 (Homo sapiens, UniProt P23458)
T3 construct: we opted to conduct a kinome screen (KiNativ) in PANC-1 cell lysates; endogenous in cells; host or cells: PANC-1 cell lysate
Procedure, shortened: as §1

PIK3CA = molecular target: T4, PIK3CA (Homo sapiens, UniProt P42336); conditions: ATP
T4 construct: endogenous in cells; host or cells: PANC-1 cell lysate
Procedure, shortened: as §1

DRAK1 = molecular target: T5, DRAK1 (Homo sapiens, UniProt Q9UEE5); conditions: Lys2
T5 construct: endogenous in cells; host or cells: PANC-1 lysate
Procedure, shortened: as §1

KSR1, KSR2 = conditions: 5 µM; ATP Loop; SKNVFYDNGK
Procedure, shortened: as §1

ROCK1 = molecular target: T6, ROCK1 (Homo sapiens, UniProt Q13464); conditions: Other
T6 construct: endogenous in cells; host or cells: PANC-1 cell lysate
Procedure, shortened: as §1

MST4, YSK1 = conditions: 5 µM; Lys2; DIKAANVLLSEQGDVK
Procedure, shortened: as §1

MARK2, MARK3 = conditions: 5 µM; Lys2; DLKAENLLLDADMNIK
Procedure, shortened: as §1

HER3/ErbB3 = molecular target: T7, HER3/ErbB3 (Homo sapiens, UniProt P21860)
T7 construct: we opted to conduct a kinome screen (KiNativ) in PANC-1 cell lysates; endogenous in cells; host or cells: PANC-1 cell lysate
Procedure, shortened: as §1

[1] = tested on: MSK1 domain1, MSK2 domain1; conditions: 5 µM; ATP Loop; VLGTGAYGKVFLVR
Procedure, shortened: as §1

TAO1, TAO3 = conditions: 5 µM; Lys2; DIKAGNILLTEPGQVK
Procedure, shortened: as §1

TBK1 = molecular target: T8, TBK1 (Homo sapiens, UniProt Q9UHD2); conditions: Lys1
T8 construct: endogenous in cells; host or cells: PANC-1 cell lysate
Procedure, shortened: as §1

NEK8 = molecular target: T9, NEK8 (Homo sapiens, UniProt Q86SG6); conditions: Lys2
T9 construct: endogenous in cells; host or cells: PANC-1 cell lysate
Procedure, shortened: as §1

MAST1, MAST2 = conditions: 5 µM; Lys2; DLKPDNLLITSMGHIK
Procedure, shortened: as §1

CaMK2g = molecular target: T10, CaMK2g (Homo sapiens, UniProt Q13555); conditions: Lys1
T10 construct: endogenous in cells; host or cells: PANC-1 cell lysate
Procedure, shortened: as §1

NDR1 = molecular target: T11, NDR1 (Homo sapiens, UniProt Q15208)
T11 construct: endogenous in cells; host or cells: PANC-1
Procedure, shortened: as §1

PRP4 = molecular target: T12, PRP4 (Homo sapiens, UniProt Q13523); conditions: Lys2
T12 construct: endogenous in cells; host or cells: PANC-1 cell lysate
Procedure, shortened: as §1

MER, TYRO3 = conditions: 5 µM; ATP Loop; KIYSGDYYR
Procedure, shortened: as §1

CK2a1 = molecular target: T13, CK2a1 (Homo sapiens, UniProt P68400); conditions: Protein Kinase Domain
T13 construct: endogenous in cells; host or cells: PANC-1 cell lysate
Procedure, shortened: as §1

MST3, MST4, YSK1 = conditions: 5 µM; ATP Loop; LADFGVAGQLTDTQIKR
Procedure, shortened: as §1

MAP2K7 = molecular target: T14, MAP2K7 (Homo sapiens, UniProt O14733); conditions: Lys2
T14 construct: endogenous in cells; host or cells: PANC-1 cell lysate
Procedure, shortened: as §1

MAP3K15, MAP3K5, MAP3K6 = conditions: 5 µM; Lys1; IAIKEIPER
Procedure, shortened: as §1

PI4KB = molecular target: T15, PI4KB (Homo sapiens, UniProt Q9UBF8); conditions: ATP
T15 construct: endogenous in cells; host or cells: PANC-1 cell lysate
Procedure, shortened: as §1

HER2/ErbB2 = molecular target: T16, HER2/ErbB2 (Homo sapiens, UniProt P04626)
T16 construct: we opted to conduct a kinome screen (KiNativ) in PANC-1 cell lysates; endogenous in cells; host or cells: PANC-1 cell lysate
Procedure, shortened: as §1

T16 sequence (P04626 23-1255): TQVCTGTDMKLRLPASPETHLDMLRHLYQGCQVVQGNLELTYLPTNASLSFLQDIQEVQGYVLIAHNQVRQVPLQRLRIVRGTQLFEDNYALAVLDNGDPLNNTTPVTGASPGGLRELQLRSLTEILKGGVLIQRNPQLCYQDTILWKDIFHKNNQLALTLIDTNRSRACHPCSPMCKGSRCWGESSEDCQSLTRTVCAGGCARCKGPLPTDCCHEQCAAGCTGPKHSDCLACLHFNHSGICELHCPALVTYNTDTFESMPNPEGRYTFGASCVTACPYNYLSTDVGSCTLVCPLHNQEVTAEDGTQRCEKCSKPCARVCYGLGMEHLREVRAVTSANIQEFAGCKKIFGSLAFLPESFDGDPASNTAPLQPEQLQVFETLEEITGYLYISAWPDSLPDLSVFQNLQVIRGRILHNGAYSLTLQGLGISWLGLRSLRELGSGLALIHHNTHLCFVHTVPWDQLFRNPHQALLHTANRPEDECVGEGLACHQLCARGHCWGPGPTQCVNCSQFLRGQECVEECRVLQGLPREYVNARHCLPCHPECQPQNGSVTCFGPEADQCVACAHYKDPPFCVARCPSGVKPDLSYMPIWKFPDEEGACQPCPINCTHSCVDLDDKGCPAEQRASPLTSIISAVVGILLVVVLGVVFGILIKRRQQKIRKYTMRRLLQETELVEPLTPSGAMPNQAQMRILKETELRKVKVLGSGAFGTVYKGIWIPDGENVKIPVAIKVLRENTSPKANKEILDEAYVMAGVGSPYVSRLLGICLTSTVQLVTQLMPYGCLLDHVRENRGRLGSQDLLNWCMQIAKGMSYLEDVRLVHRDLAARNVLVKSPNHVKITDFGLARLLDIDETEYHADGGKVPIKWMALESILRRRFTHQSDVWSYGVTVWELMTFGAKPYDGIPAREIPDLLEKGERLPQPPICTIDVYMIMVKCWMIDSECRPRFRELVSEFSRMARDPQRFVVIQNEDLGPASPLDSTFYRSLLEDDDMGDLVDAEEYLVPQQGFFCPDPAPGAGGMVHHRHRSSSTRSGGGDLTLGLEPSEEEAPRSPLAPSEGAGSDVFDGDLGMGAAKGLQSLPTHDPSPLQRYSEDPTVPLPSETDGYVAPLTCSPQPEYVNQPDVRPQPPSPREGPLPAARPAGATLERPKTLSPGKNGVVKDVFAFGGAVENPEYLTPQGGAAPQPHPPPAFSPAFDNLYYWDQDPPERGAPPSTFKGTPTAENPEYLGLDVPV
T15 sequence (Q9UBF8 whole entry): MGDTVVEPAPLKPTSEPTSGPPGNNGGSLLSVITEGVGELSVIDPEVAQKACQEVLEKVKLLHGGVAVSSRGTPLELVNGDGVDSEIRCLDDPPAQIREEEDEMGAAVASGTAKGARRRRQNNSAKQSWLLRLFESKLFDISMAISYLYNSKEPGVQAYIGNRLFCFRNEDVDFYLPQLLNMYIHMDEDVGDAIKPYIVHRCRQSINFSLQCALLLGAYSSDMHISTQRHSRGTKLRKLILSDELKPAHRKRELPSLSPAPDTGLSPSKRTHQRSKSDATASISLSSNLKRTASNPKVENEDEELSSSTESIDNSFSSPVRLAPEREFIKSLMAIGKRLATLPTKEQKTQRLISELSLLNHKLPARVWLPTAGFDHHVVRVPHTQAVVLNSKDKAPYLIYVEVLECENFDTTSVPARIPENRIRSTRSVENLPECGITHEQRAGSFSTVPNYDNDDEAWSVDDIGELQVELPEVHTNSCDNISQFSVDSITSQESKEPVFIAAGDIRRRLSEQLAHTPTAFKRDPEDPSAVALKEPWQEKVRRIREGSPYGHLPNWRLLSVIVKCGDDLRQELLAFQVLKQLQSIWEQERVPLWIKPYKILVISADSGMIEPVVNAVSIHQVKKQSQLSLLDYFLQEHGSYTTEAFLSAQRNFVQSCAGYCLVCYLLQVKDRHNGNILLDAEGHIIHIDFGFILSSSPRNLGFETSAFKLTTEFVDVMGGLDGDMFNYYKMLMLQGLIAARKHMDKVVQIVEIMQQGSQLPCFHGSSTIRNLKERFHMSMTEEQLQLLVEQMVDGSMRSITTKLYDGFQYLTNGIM
T7 sequence (P21860 20-1342): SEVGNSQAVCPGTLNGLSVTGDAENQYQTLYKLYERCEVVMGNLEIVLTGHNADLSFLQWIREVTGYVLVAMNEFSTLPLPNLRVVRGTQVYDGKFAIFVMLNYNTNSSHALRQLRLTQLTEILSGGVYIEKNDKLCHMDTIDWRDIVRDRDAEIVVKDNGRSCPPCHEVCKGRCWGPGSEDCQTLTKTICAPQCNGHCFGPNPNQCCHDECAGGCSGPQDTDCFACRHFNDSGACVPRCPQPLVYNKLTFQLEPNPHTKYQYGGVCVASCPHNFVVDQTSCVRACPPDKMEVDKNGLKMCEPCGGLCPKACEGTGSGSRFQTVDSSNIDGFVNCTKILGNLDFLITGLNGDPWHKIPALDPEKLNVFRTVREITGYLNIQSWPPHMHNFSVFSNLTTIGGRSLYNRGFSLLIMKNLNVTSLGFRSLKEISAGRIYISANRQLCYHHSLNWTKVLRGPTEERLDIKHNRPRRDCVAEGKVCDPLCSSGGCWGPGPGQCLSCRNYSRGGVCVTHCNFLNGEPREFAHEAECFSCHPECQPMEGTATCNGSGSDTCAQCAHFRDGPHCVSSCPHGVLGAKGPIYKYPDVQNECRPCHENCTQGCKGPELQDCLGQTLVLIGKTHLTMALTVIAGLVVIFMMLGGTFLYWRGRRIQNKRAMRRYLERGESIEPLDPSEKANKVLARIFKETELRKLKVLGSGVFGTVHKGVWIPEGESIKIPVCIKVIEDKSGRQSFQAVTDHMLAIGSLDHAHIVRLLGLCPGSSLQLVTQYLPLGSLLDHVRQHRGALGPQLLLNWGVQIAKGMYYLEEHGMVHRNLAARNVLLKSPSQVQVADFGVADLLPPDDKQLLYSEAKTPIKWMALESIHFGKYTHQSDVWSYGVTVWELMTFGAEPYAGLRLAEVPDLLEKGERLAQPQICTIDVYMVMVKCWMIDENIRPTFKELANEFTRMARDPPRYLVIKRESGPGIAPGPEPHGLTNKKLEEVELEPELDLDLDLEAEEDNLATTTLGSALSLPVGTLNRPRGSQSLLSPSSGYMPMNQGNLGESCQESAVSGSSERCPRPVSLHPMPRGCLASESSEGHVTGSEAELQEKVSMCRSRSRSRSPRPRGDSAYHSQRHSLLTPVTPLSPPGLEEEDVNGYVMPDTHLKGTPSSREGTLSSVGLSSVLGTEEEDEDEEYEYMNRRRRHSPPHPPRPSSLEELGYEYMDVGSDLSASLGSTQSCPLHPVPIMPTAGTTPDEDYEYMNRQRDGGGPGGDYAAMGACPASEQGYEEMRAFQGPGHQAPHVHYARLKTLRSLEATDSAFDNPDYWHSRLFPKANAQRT
T3 sequence (P23458 whole entry, the tested form may be a part): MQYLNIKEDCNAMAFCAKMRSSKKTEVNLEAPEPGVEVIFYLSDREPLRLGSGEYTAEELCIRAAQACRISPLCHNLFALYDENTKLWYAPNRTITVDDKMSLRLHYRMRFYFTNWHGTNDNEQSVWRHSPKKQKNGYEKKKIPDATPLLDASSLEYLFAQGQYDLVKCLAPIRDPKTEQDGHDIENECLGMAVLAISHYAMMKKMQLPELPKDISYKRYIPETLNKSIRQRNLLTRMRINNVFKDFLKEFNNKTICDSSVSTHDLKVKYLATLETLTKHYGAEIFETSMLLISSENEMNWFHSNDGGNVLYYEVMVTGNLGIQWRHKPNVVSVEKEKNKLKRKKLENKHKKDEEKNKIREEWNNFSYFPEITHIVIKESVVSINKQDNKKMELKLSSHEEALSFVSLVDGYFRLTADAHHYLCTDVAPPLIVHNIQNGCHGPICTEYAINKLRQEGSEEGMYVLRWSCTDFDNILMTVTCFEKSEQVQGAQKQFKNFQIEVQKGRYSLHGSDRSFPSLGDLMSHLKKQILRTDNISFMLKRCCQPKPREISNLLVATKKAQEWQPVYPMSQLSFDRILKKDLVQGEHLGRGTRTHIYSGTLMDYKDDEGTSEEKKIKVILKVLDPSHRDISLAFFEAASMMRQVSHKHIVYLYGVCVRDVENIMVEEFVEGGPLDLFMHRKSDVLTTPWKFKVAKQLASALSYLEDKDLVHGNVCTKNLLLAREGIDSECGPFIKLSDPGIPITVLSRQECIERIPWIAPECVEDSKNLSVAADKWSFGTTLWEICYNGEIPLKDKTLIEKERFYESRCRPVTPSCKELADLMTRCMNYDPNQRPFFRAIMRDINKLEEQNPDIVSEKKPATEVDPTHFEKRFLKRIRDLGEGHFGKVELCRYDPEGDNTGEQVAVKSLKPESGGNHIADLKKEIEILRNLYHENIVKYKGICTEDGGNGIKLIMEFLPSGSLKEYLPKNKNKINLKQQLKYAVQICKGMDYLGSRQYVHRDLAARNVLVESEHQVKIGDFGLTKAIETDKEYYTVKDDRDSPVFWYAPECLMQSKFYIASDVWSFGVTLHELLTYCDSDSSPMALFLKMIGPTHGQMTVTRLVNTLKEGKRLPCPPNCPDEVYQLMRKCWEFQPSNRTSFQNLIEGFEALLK
T11 sequence (Q15208 whole entry): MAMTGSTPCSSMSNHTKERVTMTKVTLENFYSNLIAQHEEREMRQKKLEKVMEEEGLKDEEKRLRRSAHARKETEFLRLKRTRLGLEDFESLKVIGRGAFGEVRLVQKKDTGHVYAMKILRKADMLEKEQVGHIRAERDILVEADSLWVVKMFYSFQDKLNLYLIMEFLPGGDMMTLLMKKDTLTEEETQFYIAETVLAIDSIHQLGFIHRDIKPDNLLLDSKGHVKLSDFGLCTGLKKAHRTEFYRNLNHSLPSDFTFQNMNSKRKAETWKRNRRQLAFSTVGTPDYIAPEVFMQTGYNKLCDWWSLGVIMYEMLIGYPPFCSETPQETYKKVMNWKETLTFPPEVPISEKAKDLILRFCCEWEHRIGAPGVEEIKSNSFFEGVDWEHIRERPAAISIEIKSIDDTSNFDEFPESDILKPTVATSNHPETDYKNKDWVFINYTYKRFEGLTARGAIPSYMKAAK

Compound `Cn1cc(-c2cnc3ccc(NC(=O)Nc4ccc(F)c(C(F)(F)F)c4)cc3n2)cn1` [51-106, 1-(4-Fluoro-3-(trifluoromethyl)phenyl)-3-(3-(1-methyl-1H-pyrazol-4-yl)quinoxalin-6-yl)urea] has an inhibition at 5 µM (STK33) of 26.6%, an inhibition at 5 µM (SNRK; Lys1, VAVKVIDK) of no more than 0% and an inhibition at 5 µM (SNRK; Lys2, DLKPENVVFFEK) of 0.4%. The “% Inhibition” value (JAK1 domain2; 5 µM, ATP Loop, IGDFGLTKAIETDKEYYTVK) was “NB (NB = No Binding (≤ 0))”, the inhibition at 5 µM (JAK1 domain2; Lys1, […]) was no more than 0% and the inhibition at 5 µM (PIK3CA) was no more than 0%. The inhibition at 5 µM (DRAK1) was no more than 0%, the “% Inhibition” value (KSR1, KSR2) was 8.8% and the inhibition at 5 µM (ROCK1) was no more than 0%. The “% Inhibition” value (MST4, YSK1) was 12.8%, the “% Inhibition” value (MARK2, MARK3) was 11.3% and the inhibition at 5 µM (HER3/ErbB3; ATP Loop, SPSQVQVADFGVADLLPPDDKQLLYSEAKTPIK) was 2%. The inhibition at 5 µM (HER3/ErbB3; Lys1, GVWIPEGESIKIPVCIKVIEDK) was no more than 0%, the “% Inhibition” value [1] was 0.1% and the “% Inhibition” value (TAO1, TAO3) was 4.9%. For the same compound, the inhibition at 5 µM (TBK1) was 5.7%, the inhibition at 5 µM (NEK8) was no more than 0% and the “% Inhibition” value (MAST1, MAST2) was “NB (NB = No Binding (≤ 0))”. The inhibition at 5 µM (CaMK2g) was 7.1%, the inhibition at 5 µM (NDR1; Lys1, DTGHVYAMKILR) was 6% and the inhibition at 5 µM (NDR1; Lys2, DIKPDNLLLDSK) was no more than 0%. The inhibition at 5 µM (PRP4) was no more than 0%, the “% Inhibition” value (MER, TYRO3) was “NB (NB = No Binding (≤ 0))” and the inhibition at 5 µM (CK2a1) was no more than 0%. The “% Inhibition” value (MST3, MST4, YSK1) was “NB (NB = No Binding (≤ 0))”, the inhibition at 5 µM (MAP2K7) was no more than 0% and the “% Inhibition” value (MAP3K15, MAP3K5, MAP3K6) was “NB (NB = No Binding (≤ 0))”. It also gave an inhibition at 5 µM (PI4KB; LLSVIVKCGDDLRQELLAFQVLK) of no more than 0%, an inhibition at 5 µM (PI4KB; VPHTQAVVLNSKDK) of 3.9% and an inhibition at 5 µM (HER2/ErbB2; ATP Loop, LLDIDETEYHADGGKVPIK) of no more than 0%. It also gave an inhibition at 5 µM (HER2/ErbB2; Lys1, GIWIPDGENVKIPVAIKVLR) of 15.6%.

From PMC12073402, “A Selective MAP3K1 Inhibitor Facilitates Discovery of NPM1 as a Member of the Network” (Molecules, 2025)
